Results: patent US20200138827A1, “SMALL MOLECULE MODULATORS OF HUMAN STING” (Curadev Pharma Limited, priority 2017, published 2020)
pEC50: −log10 of the molar value. Like-named read-outs stand apart in the source and are kept apart here.

How the values were obtained:
WT/R232 STING protein = biological target: T1, WT/R232 STING protein (Homo sapiens, UniProt Q86WV6, H232R); test: Luciferase reporter assay in HEK293T-hSTING-Luciferase cells, WT/R232; format: cell-based; conditions: 20 hr stimulation, read-out: R232 Activity (EC50 range)
T1 construct: host or cells: HEK293T
T1 sequence (Q86WV6 whole entry H232R): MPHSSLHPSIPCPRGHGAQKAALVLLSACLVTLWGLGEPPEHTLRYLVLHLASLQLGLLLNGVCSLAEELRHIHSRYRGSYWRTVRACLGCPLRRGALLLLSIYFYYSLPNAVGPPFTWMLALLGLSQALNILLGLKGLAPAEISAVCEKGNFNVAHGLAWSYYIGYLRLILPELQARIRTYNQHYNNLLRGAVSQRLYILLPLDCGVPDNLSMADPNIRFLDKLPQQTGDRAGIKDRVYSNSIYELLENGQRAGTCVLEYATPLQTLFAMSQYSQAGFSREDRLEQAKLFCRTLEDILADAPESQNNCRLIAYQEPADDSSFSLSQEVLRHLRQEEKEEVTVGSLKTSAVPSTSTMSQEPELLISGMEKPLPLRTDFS
How it was run: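 Clonal HEK293T cells stably expressing human STING R232 plus an ISRE/ISG54-driven luciferase reporter, 5×10^5 per well, stimulated with compounds for 20 h. Secreted luciferase in supernatant measured by luminescence; […].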

hSTING(HAQ) = biological target: T2, hSTING(HAQ) (Homo sapiens, UniProt Q86WV6, G230A/H232R/R293Q/R71H); test: Luciferase reporter assay in HEK293T-hSTING-Luciferase cells, HAQ polymorph; format: cell-based; conditions: 20 hr stimulation, read-out: HAQ activity (EC50 range)
T2 construct: host or cells: HEK293T
T2 sequence (Q86WV6 whole entry R71H/G230A/H232R/R293Q): as the sequence (Q86WV6 whole entry H232R) above, with R71H, G230A, R293Q counted along it
How it was run: (§1)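 HEK293T clones stably expressed the given human STING variant plus luciferase under an ISRE/ISG54 IRF-inducible promoter. 5×10^5 cells were stimulated with compound for 20 hr, and secreted luciferase in the supernatant was measured by Quanti-Luc luminescence.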

NF-κB pathway = test: Reporter gene expression assay in THP1-Dual cells, NFkB axis (secreted SEAP); format: cell-based, human; conditions: read-out: THP-NFKB activity (EC50 range)
How it was run: (§2)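 THP-1-derived cells carrying inducible NF-κB-SEAP and IRF-Lucia reporters, seeded at 5×10^5 and stimulated with compounds. After […], supernatant SEAP read with QUANTI-Blue and Lucia luciferase with QUANTI-Luc.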

IRF pathway = test: Reporter gene expression assay in THP1-Dual cells, IRF axis (secreted Lucia luciferase); format: cell-based, human; conditions: read-out: THP-IRF activity (EC50 range)
How it was run: as §2

hSTING(H232) = biological target: T3, hSTING(H232) (Homo sapiens, UniProt Q86WV6); test: Luciferase reporter assay in HEK293T-hSTING-Luciferase cells, H232 polymorph; format: cell-based; conditions: 20 hr stimulation, read-out: H232 activity (EC50 range)
T3 construct: host or cells: HEK293T
T3 sequence (Q86WV6 whole entry): as the sequence (Q86WV6 whole entry H232R) above, with R232H counted along it
How it was run: as §1

| SMILES | pEC50 (WT/R232 STING protein) | pEC50 (hSTING(HAQ)) | pEC50 (NF-κB pathway; Homo sapiens, THP1-Dual) | pEC50 (IRF pathway; Homo sapiens, THP1-Dual) | pEC50 (hSTING(H232)) | pEC50 (NF-κB pathway) | pEC50 (IRF pathway) |
| --- | --- | --- | --- | --- | --- | --- | --- |
| CC1Sc2ncc(C(=O)NCc3cc4ccccc4o3)cc2N(Cc2c(F)cccc2Cl)C1=O (centres unmarked) [Example 199, N-(benzofuran-2-ylmethyl)-1-(2-chloro-6-fluorobenzyl)-3-methyl-2-oxo-2,3-dihydro-1H-pyrido[2,3-b][1,4]thiazine-7-carboxamide] | > 6.00 | > 6.00 | 5.00 to 6.00 | 5.00 to 6.00 | > 6.00 |  |  |
| CC1Sc2ccc(C(=O)NCc3c(F)cc(F)cc3F)cc2N(Cc2cnn(C)c2)C1=O (centres unmarked) [Example 133, 2-methyl-N-2,4,6-trifluorobenzyl-4-[(1-methyl-1H-pyrazol-4-yl)methyl]-3-oxo-3,4-dihydro-2H-1,4-benzothiazine-6-carboxamide] | 5.00 to 6.00 | 5.00 to 6.00 | 5.00 to 6.00 | < 5.00 | 5.00 to 6.00 |  |  |
| O=C(NCc1ccc(F)cc1)c1ccc2c(c1)N(Cc1c(F)cccc1Cl)C(=O)CS2 [Example 127, 4-(2-chloro-6-fluorobenzyl)-N-(4-fluorobenzyl)-3-oxo-3,4-dihydro-2H-benzo[b-1,4]thiazine-6-carboxamide] | 5.00 to 6.00 | 5.00 to 6.00 | < 5.00 | < 5.00 | 5.00 to 6.00 |  |  |
| CC1Sc2ccc(C(=O)NCc3c(F)cc(F)cc3F)cc2N(Cc2c(F)cccc2Cl)C1=O (centres unmarked) [Example 138, 4-(2-chloro-6-fluorobenzyl)-2-methyl-3-oxo-N-(2,4,6-trifluorobenzyl)-3,4-dihydro-2H-benzo[b-1,4]thiazine-6-carboxamide] | > 6.00 | > 6.00 | 5.00 to 6.00 | 5.00 to 6.00 | > 6.00 |  |  |
| CC1Sc2ccc(C(=O)NCc3c(F)cc(F)cc3F)cc2N(Cc2ccncc2)C1=O (centres unmarked) [Example 157, 2-methyl-3-oxo-4-(pyridin-4-ylmethyl)-N-(2,4,6-trifluorobenzyl)-3,4-dihydro-2H-benzo[b][1,4] thiazine-6-carboxamide] | > 6.00 | 5.00 to 6.00 | 5.00 to 6.00 | 5.00 to 6.00 | 5.00 to 6.00 |  |  |
| Cc1ccc(CNC(=O)c2ccc3c(n2)N(Cc2c(F)cccc2Cl)C(=O)C(C)S3)o1 (centres unmarked) [Example 202, 4-(2-chloro-6-fluorobenzyl)-2-methyl-N-((5-methylfuran-2-yl)methyl)-3-oxo-3,4-dihydro-2H-pyrido[3,2-b] [1,4]thiazine-6-carboxamide] | 5.00 to 6.00 | 5.00 to 6.00 | < 5.00 | < 5.00 | 5.00 to 6.00 |  |  |
| O=C(NCc1cc2ccccc2o1)c1ccc2c(n1)N(Cc1cc(F)cc(F)c1)C(=O)CS2 [Example 183, N-(benzofuran-2-ylmethyl)-4-(3,5-difluorobenzyl)-3-oxo-3,4-dihydro-2H-pyrido[3,2-b-1,4]thiazine-6-carboxamide] | 5.00 to 6.00 | 5.00 to 6.00 | 5.00 to 6.00 | < 5.00 | 5.00 to 6.00 |  |  |
| CC1Sc2ncc(C(=O)NCc3c(F)cc(F)cc3F)cc2N(Cc2c(F)cccc2Cl)C1=O (centres unmarked) [Example 196, 1-(2-chloro-6 fluorobenzyl) 3-methyl-2-oxo-N-(2,4,6-trifluorobenzyl)-2,3-dihydro-1H-pyrido[2,3-b][1,4]thiazine-7-carboxamide] | > 6.00 | > 6.00 | 5.00 to 6.00 | 5.00 to 6.00 | > 6.00 |  |  |
| O=C(NCc1c(F)cc(F)cc1F)c1ccc2c(c1)N(Cc1c(F)cccc1Cl)C(=O)CS2 [Example 112, 4-(2-chloro-6-fluorobenzyl)-3-oxo-N-(2,4,6-trifluorobenzyl)-3,4-dihydro-2H-benzo[b-1,4]thiazine-6-carboxamide] | > 6.00 | > 6.00 | < 5.00 | < 5.00 | > 6.00 |  |  |
| CC1Sc2ccc(C(=O)NCc3cc4ccccc4o3)cc2N(Cc2cc(F)cc(F)c2)C1=O (centres unmarked) [Example 149, N-(benzofuran-2-ylmethyl)-4-(3,5-difluorobenzyl)-2-methyl-3-oxo-3,4-dihydro-2H-benzo[b][1,4] thiazine-6-carboxamide] | > 6.00 | > 6.00 | > 6.00 | 5.00 to 6.00 | > 6.00 |  |  |
| Cc1cc(CN2C(=O)CSc3ccc(C(=O)NCc4ccco4)cc32)cc(C(F)(F)F)c1 [Example 83, N-(furan-2-ylmethyl)-4-(3-methyl-5-(trifluoromethyl)benzyl)-3-oxo-3,4-dihydro-2H-benzo[b-1,4]thiazine-6-carboxamide] | 5.00 to 6.00 | < 5.00 | < 5.00 | < 5.00 | < 5.00 |  |  |
| CC1Oc2ccc(C(=O)NCc3c(F)cc(F)cc3F)cc2N(Cc2cc(F)cc(F)c2)C1=O (centres unmarked) [Example 232, 2-Methyl-4-(3,5-difluorobenzvyl)-3-oxo-N-(2,4,6-trifluorobenzyl)-3,4-dihydro-2H-1,4-benzoxazine-6-carboxamide] | > 6.00 | 5.00 to 6.00 | < 5.00 | < 5.00 | 5.00 to 6.00 |  |  |
| CC1(C)CC(=O)N(Cc2cc(F)cc(F)c2)c2cc(C(=O)NCc3c(F)cc(F)cc3F)ccc21 [Example 271, 1-(3,5-difluorobenzyl)-4,4-dimethyl-2-oxo-N-(2,4,6-trifluorobenzyl)-1,2,3,4-tetrahydroquinoline-7-carboxamide] | > 6.00 | > 6.00 | 5.00 to 6.00 | 5.00 to 6.00 | > 6.00 |  |  |
| C[C@H]1Oc2ccc(C(=O)NCc3c(F)cc(F)cc3F)cc2N(Cc2cc(F)cc(F)c2)C1=O [Example 242, (R)-4-(3,5-difluorobenzyl)-2-methyl-3-oxo-N-(2,4,6-trifluorobenzyl)-3,4-dihydro-2H-benzo[b][1,4] oxazine-6-carboxamide] | > 6.00 | 5.00 to 6.00 |  |  | < 5.00 | < 5.00 | < 5.00 |
| O=C(NCc1c(F)cc(F)cc1F)c1ccc2c(c1)N(Cc1ccncc1)C(=O)CS2 [Example 39, 3-oxo-4-(pyridin-4-ylmethyl)-N-(2,4,6-trifluoro-benzyl)-3,4-dihydro-2H-benzo[b-1,4]thiazine-6-carboxamide] | 5.00 to 6.00 | 5.00 to 6.00 | < 5.00 | < 5.00 | 5.00 to 6.00 |  |  |
| O=C(NCc1ccco1)c1ccc2c(c1)N(Cc1c(Cl)cccc1Cl)C(=O)CS2 [Example 93, 4-(2,6-dichlorobenzyl)-N-(furan-2-ylmethyl)-3-oxo-3,4-dihydro-2H-benzo[b-1,4]thiazine-6-carboxamide] | 5.00 to 6.00 | < 5.00 | < 5.00 | < 5.00 | 5.00 to 6.00 |  |  |
